Results on 3 molecules are retold here after patent publication US20220160716A1 (SORBONNE UNIVERSITE, priority 2019, published 2022).

Molecules are shown by their SMILES. “Also recorded” adds a separate entry of the source. Some results are limits rather than exact numbers.

For one assay, the target named is T1, CLK1 (Homo sapiens, UniProt P49759).
T1 construct: made in house
Nature of the assay: Protein kinase catalytic activity assay, CLK1. Format: biochemical. The note with it: read-out: IC50 of protein kinases, CLK1.

The target of the next assay is T2, CDK2/A (Homo sapiens, UniProt P24941).
T2 construct: made in house
The assay is described as follows: Protein kinase catalytic activity assay, CDK2/cyclin A. Format: biochemical. The note with it: activator cyclin A; read-out: IC50 of protein kinases, CDK2/A.

The target in the next assay is T3, CDK9/T (Homo sapiens, UniProt P50750).
T3 construct: made in house
The assay is described as follows: Protein kinase catalytic activity assay, CDK9/cyclin T. Format: biochemical. Conditions: activator cyclin T; read-out: IC50 of protein kinases, CDK9/T.

Assay [1] concerns the target T4, ABCB4-I490T (Homo sapiens, UniProt P21439, I490T). Nature of the assay: Maturation of ABCB4-I490T by immunoblot in HEK cells. Format: cell-based. Also noted: The subcloning of wild type (WT) ABCB4, isoform A (NM_000443.3), into pcDNA3 vector has been described; expressed in transfected cells; host or cells: HEK-293 (immunoblot, PC secretion). The note with it: 5 to 25 μM. The procedure:
(§1) Western blots and indirect immunofluorescence were performed as previously described (2, 12). […] Saturated membranes were incubated with mouse monoclonal anti-ABCB4 (clone P3II-26; Enzo Life Sciences, Villeurbanne, France) or anti-α-tubulin (clone 1E4C11; ProteinTech, Manchester, United Kingdom) antibodies and then with peroxidase conjugated anti-mouse secondary antibodies (Sigma). Signals were detected with ECL prime western blotting detection reagent (GE Healthcare, Velizy-Villacoublay, France) and quantified in the linear range of detection using ImageJ 1.50i software (U.S. National Institutes of Health, Bethesda, Md.).

The target in assay [2] is T5, ABCB4-I541F (Homo sapiens, UniProt P21439, I541F). Nature of the assay: ABCB4-mediated phosphatidylcholine secretion, HEK cells expressing ABCB4-I541F. Format: cell-based. Also noted: The subcloning of wild type (WT) ABCB4, isoform A (NM_000443.3), into pcDNA3 vector has been described; expressed in transfected cells; host or cells: HEK-293 (immunoblot, PC secretion). Conditions: 25 μM, maximal activity = cells expressing ABCB4-WT, vehicle 7.1±0.8%. The protocol: (§2) Cyclosporin A (CsA) was from Santa Cruz Biotechnologies (Dallas, Tex.). […] Each compound was solubilized in dimethylsulfoxide (DMSO) as 1000× concentrated stock solutions in order to treat cells with 5 μM to 100 μM final concentrations, using DMSO as control vehicle at the same dilution (0.1% DMSO for all conditions). The cells were treated 24 hours post-transfection with these drugs during 16 hours, except for the viability assays for which cells were treated during three days. After drug treatment, cells were used for immunoanalyses, cell viability assays or PC secretion assays.
(§3) HEK cells were seeded in 0.01% poly-L-lysine (Sigma) pre-coated 6-well plates of 10 cm^2 area per well (1.3×10^6 cells per well). After transient transfection of the empty vector (control), plasmids encoding ABCB4-WT or its variants, cells were incubated during 24 hours at 37° C. in serum-free medium supplemented with 0.5 mM sodium taurocholate (Sigma) and 0.02% fatty acid-free bovine serum albumin (Sigma). Then, the secreted PC was quantified from the collected media using a fluoro-enzymatic assay previously described (12). Each condition was analysed in triplicate, after background subtraction, and results were normalized to the expression levels of ABCB4 determined by immunoblots of the corresponding cell lysates.

For a further assay, the target named is T6, ABCB4-WT (Homo sapiens, UniProt P21439).
T6 construct: The subcloning of wild type (WT) ABCB4, isoform A (NM_000443.3), into pcDNA3 vector has been described; expressed in transfected cells; host or cells: HEK-293
Nature of the assay: ABCB4-mediated phosphatidylcholine secretion, HEK cells expressing ABCB4-WT. The format is cell-based. Conditions: for inhibition of ABCB4-WT-mediated PC secretion compared to roscovitine: 10 μM and 25 μM; for log IC50 on the PC secretion activity of ABCB4-WT / IC50: from dose-response curves of FIG. 4C; for IC50: read-out: IC50 on the PC secretion activity of ABCB4-WT. The procedure: as §2, §3

For the next assay, the target named is CK1. Nature of the assay: Protein kinase catalytic activity assay, CK1. Format: biochemical. Conditions: read-out: IC50 of protein kinases, CK1.
For a further assay, the target named is T7, DYRK1A (Homo sapiens, UniProt Q13627).
T7 construct: made in house
The assay is described as follows: Protein kinase catalytic activity assay, DYRK1A. The format is biochemical. Conditions: read-out: IC50 of protein kinases, DYRK1A.

For assay [3], the target named is T4, ABCB4-I490T. The assay is described as follows: ABCB4-mediated phosphatidylcholine secretion, HEK cells expressing ABCB4-I490T. Format: cell-based. Also noted: The subcloning of wild type (WT) ABCB4, isoform A (NM_000443.3), into pcDNA3 vector has been described; expressed in transfected cells; host or cells: HEK-293 (immunoblot, PC secretion). The note with it: 25 μM. The protocol:
as §2, §3

For another assay, the target named is GSK3 (Homo sapiens, UniProt P49841). The assay is described as follows: Protein kinase catalytic activity assay, GSK3. Format: biochemical. The note with it: read-out: IC50 of protein kinases, GSK3.
GSK3, sequence (P49841 whole entry, canonical isoform): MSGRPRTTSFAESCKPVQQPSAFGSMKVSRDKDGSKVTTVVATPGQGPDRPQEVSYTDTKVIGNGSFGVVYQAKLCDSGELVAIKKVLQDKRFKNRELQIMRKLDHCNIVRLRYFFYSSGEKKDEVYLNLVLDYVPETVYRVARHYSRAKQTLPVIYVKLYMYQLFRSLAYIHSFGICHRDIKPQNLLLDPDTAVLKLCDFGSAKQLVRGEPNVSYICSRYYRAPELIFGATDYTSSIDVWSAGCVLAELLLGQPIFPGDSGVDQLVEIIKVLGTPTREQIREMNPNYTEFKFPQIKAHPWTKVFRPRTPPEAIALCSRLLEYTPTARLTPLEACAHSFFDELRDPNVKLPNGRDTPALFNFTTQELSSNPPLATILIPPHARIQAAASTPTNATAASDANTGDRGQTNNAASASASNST
Assay [4] addresses T5, ABCB4-I541F. Nature of the assay: Maturation of ABCB4-I541F by immunoblot in HEK cells. Format: cell-based. Also noted: The subcloning of wild type (WT) ABCB4, isoform A (NM_000443.3), into pcDNA3 vector has been described; expressed in transfected cells; host or cells: HEK-293 (immunoblot, PC secretion). The note with it: for maturation (mature form) of ABCB4-I541F: HEK cells, 100 μM, 16 hours, immunoblot; for correction of ABCB4-I541F maturation: HEK cells, 5, 10 and 25 μM. The protocol:
as §2
Western blots and indirect immunofluorescence were performed as previously described (2, 12). […] Signals were detected with ECL prime western blotting detection reagent (GE Healthcare, Velizy-Villacoublay, France) and quantified in the linear range of detection using ImageJ 1.50i software (U.S. National Institutes of Health, Bethesda, Md.).
Background: In western blotting, separated proteins are transferred to a membrane and probed.

A further assay has as its target ABCB4-L556R (Homo sapiens, UniProt P21439, L556R). The assay is described as follows: Maturation of ABCB4-L556R by immunoblot in HEK cells. Also noted: The subcloning of wild type (WT) ABCB4, isoform A (NM_000443.3), into pcDNA3 vector has been described; expressed in transfected cells; host or cells: HEK-293 (immunoblot, PC secretion). The format is cell-based. Conditions: 5 to 25 μM. The procedure:
as §1

The next assay has as its target T8, CDK5/p25 (Homo sapiens, UniProt Q00535).
T8 construct: made in house
Format: biochemical. Conditions: activator p25; read-out: IC50 of protein kinases, CDK5/p25.

T1 sequence (P49759 whole entry): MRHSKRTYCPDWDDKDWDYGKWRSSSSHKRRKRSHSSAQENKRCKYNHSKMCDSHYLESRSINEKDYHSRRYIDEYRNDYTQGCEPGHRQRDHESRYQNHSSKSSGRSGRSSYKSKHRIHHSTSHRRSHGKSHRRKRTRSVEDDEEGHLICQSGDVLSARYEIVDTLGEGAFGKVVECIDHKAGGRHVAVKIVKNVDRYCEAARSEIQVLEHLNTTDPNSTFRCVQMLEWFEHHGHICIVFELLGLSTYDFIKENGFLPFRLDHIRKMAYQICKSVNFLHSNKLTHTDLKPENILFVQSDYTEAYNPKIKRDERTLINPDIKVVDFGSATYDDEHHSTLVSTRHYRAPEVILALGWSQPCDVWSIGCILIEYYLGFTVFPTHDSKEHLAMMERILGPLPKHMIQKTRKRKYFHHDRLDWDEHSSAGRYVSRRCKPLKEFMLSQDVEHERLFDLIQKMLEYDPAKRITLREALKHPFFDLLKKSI
ABCB4-L556R, sequence (P21439 1-1279 isoform P21439-2 L556R): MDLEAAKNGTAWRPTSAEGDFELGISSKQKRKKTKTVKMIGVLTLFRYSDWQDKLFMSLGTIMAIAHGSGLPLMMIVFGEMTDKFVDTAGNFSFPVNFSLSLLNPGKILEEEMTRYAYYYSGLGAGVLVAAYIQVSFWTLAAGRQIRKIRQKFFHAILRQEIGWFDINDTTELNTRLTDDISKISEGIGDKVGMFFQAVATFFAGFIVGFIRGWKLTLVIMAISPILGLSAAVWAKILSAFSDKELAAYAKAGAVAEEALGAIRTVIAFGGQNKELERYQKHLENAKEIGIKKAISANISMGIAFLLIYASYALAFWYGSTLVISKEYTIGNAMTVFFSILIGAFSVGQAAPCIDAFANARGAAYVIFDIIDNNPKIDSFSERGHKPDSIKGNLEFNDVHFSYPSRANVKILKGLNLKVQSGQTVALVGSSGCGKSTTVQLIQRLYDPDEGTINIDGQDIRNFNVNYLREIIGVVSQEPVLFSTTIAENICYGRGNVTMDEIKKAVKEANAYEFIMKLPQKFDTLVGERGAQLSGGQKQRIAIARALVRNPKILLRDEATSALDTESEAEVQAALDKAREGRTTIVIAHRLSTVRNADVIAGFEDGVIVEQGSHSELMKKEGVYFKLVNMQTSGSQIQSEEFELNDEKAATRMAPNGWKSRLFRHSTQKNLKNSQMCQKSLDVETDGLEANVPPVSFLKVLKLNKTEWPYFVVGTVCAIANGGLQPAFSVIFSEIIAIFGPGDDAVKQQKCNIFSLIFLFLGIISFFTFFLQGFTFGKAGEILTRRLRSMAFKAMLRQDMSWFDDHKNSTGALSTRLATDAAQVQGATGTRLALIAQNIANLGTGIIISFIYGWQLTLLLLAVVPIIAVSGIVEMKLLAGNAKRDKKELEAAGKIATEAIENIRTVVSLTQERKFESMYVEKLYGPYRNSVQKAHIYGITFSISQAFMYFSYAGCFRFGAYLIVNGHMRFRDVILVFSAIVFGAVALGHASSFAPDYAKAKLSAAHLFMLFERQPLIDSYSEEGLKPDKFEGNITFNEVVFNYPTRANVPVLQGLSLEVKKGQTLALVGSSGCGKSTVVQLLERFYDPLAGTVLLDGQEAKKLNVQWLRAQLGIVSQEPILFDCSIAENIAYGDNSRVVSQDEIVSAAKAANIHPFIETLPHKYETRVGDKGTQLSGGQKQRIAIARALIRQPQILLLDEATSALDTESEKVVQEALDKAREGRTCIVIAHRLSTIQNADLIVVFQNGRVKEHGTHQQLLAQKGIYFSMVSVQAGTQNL
T4 sequence (P21439 1-1279 isoform P21439-2 I490T): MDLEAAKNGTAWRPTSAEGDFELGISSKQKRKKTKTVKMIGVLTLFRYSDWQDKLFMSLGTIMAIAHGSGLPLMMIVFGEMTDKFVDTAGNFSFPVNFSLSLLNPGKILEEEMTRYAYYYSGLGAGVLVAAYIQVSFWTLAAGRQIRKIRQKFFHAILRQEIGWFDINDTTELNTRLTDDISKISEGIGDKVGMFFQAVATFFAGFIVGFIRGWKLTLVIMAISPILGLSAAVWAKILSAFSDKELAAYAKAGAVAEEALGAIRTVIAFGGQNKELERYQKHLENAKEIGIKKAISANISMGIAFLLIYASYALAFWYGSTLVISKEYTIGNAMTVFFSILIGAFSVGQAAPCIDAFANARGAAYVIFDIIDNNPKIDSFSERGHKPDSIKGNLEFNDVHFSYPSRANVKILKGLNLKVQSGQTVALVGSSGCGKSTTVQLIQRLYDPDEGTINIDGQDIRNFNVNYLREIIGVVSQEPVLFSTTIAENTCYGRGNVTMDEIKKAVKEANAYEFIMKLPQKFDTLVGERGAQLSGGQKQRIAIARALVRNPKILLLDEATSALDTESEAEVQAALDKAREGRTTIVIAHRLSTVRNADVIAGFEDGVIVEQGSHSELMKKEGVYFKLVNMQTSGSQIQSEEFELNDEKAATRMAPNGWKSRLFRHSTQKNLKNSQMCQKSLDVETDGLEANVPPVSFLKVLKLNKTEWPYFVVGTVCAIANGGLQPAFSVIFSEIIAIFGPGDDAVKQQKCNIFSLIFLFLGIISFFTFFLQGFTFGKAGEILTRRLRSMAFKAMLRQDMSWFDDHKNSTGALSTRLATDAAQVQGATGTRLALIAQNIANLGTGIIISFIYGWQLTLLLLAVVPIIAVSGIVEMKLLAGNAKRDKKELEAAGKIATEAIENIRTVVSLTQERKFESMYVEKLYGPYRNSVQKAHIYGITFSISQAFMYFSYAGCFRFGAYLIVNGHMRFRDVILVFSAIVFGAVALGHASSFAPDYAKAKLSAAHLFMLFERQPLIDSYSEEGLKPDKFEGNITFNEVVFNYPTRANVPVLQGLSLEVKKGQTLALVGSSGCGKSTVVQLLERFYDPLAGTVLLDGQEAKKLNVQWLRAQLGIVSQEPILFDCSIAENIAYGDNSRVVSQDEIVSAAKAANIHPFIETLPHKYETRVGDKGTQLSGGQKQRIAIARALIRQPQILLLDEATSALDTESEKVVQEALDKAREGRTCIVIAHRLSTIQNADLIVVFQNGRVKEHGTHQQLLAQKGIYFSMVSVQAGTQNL
T8 sequence (Q00535 whole entry, species assumed): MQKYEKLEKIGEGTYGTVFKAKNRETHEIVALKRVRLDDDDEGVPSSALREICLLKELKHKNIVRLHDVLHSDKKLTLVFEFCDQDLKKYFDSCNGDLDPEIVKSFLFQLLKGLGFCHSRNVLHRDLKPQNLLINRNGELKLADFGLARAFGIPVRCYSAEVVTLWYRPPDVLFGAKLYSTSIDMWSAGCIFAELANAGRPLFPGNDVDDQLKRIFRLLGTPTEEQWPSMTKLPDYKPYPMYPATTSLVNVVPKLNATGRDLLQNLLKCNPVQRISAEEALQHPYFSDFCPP
T8 sequence (Q15078 99-307 partner limits assumed, species assumed): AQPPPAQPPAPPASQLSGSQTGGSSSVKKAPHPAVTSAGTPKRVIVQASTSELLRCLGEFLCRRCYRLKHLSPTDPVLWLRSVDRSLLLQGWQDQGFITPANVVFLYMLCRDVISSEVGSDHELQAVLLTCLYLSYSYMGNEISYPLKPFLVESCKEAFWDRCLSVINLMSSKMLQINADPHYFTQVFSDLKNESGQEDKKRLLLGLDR

On to `CC[C@@H](Nc1nc(NCc2cccc(Cl)c2)c2ncn(C3CCCC3)c2n1)C(=O)O` [MRT2-237], for which the IC50 came to 8.5 µM at CLK1; 3.4 µM at CDK2/A; 9 µM on CDK9/T; 29.3 µM at ABCB4-WT; 3.33 µM on CK1; 13 µM at DYRK1A. The IC50 is over 10 µM on GSK3 and 7.7 µM at CDK5/p25. The “rescue of the maturation of ABCB4-I490T” value on ABCB4-I490T [1] was “dose-dependent rescue of the maturation”. For the same molecule, the “PC secretion activity of ABCB4-I541F (residual activity)” value on ABCB4-I541F [2] is 13.0±3.5%. Further, the “inhibition of ABCB4-WT-mediated PC secretion compared to roscovitine” value (“inhibition … compared to roscovitine” for short) on ABCB4-WT was “less inhibitory than the original molecule”. The “log IC50 on the PC secretion activity of ABCB4-WT” value (“log IC50” for short) on ABCB4-WT was −4.533. Moreover, the “PC secretion residual activity of ABCB4-I490T” value (shortened to “PC secretion residual activity”) on ABCB4-I490T [3] is recorded as “significant increase of the residual activity”. Further, the “maturation (mature form) of ABCB4-I541F” value at ABCB4-I541F [4] is given as “significantly increase the expression of a mature form of ABCB4-I541F; also recorded: significant rescue of the maturation”. Moreover, the “correction of ABCB4-I541F maturation” value at ABCB4-I541F [4] was “dose-dependent correction of ABCB4-I541F maturation”. Further, the “rescue of the maturation of ABCB4-L556R” value on ABCB4-L556R is given as “dose-dependent rescue of the maturation”.

Regarding `CC[C@@H](Nc1nc(NCc2cccc(F)c2)c2ncn(C3CCCC3)c2n1)C(=O)O` [MRT2-235], the IC50 at CLK1 is 11 µM; on CDK2/A it was 5.9 µM; at CDK9/T, 7 µM; at ABCB4-WT it was 21 µM; on CK1, 7 µM; on DYRK1A, 21 µM. Moreover, the IC50 is over 10 µM on GSK3 and 8.3 µM on CDK5/p25. In addition, the “rescue of the maturation of ABCB4-I490T” value at ABCB4-I490T [1] is reported as “dose-dependent rescue of the maturation”. Moreover, the “PC secretion activity of ABCB4-I541F (residual activity)” value at ABCB4-I541F [2] was determined as 19.0±3.4%. Further, the “inhibition … compared to roscovitine” value on ABCB4-WT is reported as “less inhibitory than the original molecule”. For the same molecule, the “log IC50” value on ABCB4-WT was −4.678. Besides, the “PC secretion residual activity” value at ABCB4-I490T [3] was “significant increase of the residual activity”. Besides, the “maturation (mature form) of ABCB4-I541F” value on ABCB4-I541F [4] is “significantly increase the expression of a mature form of ABCB4-I541F; also recorded: significant rescue of the maturation”. Besides, the “correction of ABCB4-I541F maturation” value at ABCB4-I541F [4] is recorded as “dose-dependent correction of ABCB4-I541F maturation”. Moreover, at ABCB4-L556R, the “rescue of the maturation of ABCB4-L556R” value is reported as “dose-dependent rescue of the maturation”.

Regarding `CC[C@@H](Nc1nc(NCc2ccc(Cl)c(F)c2)c2ncn(C3CCCC3)c2n1)C(=O)O` [MRT2-243], the IC50 at CLK1 is 20 µM; on CDK2/A, 3 µM; on CDK9/T, 5 µM; on ABCB4-WT, 17.6 µM; at CK1, 6.1 µM; at DYRK1A, 12 µM. Further, the figures for the IC50 at GSK3 and on CDK5/p25 were over 10 µM and 6.3 µM, respectively. At ABCB4-I490T [1], the “rescue of the maturation of ABCB4-I490T” value is given as “dose-dependent rescue of the maturation”. Also, the “PC secretion activity of ABCB4-I541F (residual activity)” value at ABCB4-I541F [2] came to 22.5±6.2%. Besides, the “inhibition … compared to roscovitine” value at ABCB4-WT is “less inhibitory than the original molecule”. Moreover, on ABCB4-WT, the “log IC50” value is reported as −4.754. For the same molecule, at ABCB4-I490T [3], the “PC secretion residual activity” value is “significant increase of the residual activity”. Besides, the “maturation (mature form) of ABCB4-I541F” value at ABCB4-I541F [4] is recorded as “significantly increase the expression of a mature form of ABCB4-I541F; also recorded: significant rescue of the maturation”. Further, on ABCB4-I541F [4], the “correction of ABCB4-I541F maturation” value is given as “dose-dependent correction of ABCB4-I541F maturation”. At ABCB4-L556R, the “rescue of the maturation of ABCB4-L556R” value is on record as “dose-dependent rescue of the maturation”.
